Laboratory results published in US9675614B2, “PRMT5 inhibitors and uses thereof” (Epizyme, Inc., priority 2012, dated 2017).

Assays:
[1] = test system: symmetric di-methyl arginine in Z-138 cells; test: Z-138 Methylation Assay (In Cell Western for symmetric di-methyl arginine and DNA content); type: cell-based; details: Homo sapiens, read-out: ICW EC50
Excerpt: [formula] Where top and bottom are the normally allowed to float, but may be fixed at 100 or 0 respectively in a 3-parameter fit. The Hill Coefficient normally allowed to float but may also be fixed at 1 in a 3-parameter fit. Y is the % inhibition and X is the compound concentration.
RPMI/Glutamax medium, penicillin-streptomycin, heat inactivated fetal bovine serum, and D-PBS were purchased from Life Technologies, Grand Island, N.Y., USA. Odyssey blocking buffer, 800CW goat anti-rabbit IgG (H+L) antibody, and Licor Odyssey infrared scanner were purchased from Licor Biosciences, Lincoln, Nebr., USA. Symmetric di-methyl arginine antibody was purchased from EMD Millipore, Billerica, Mass., USA. 16% Paraformaldehyde was purchased from Electron Microscopy Sciences, Hatfield, Pa., USA.
Cell Treatment, in Cell Western (ICW) for Detection of Symmetric Di-Methyl Arginine and DNA Content.
Z-138 cells were seeded in assay medium at a concentration of 50,000 cells per mL to a 384-well cell culture plate with 50 μL per well. Compound (100 nL) from 384 well source plates was added directly to 384 well cell plate. Plates were incubated at 37° C., 5% CO2 for 96 hours. […] Plates were incubated at room temperature for 30 minutes then incubated at 37° C., 5% CO2 for 5 hours. After the incubation, 40 μL per well of 8% paraformaldehyde in PBS (16% paraformaldahyde was diluted to 8% in PBS) was added to each plate and incubated for 30 minutes. […] Next 30 μL per well of Odyssey blocking buffer were added to each plate and incubated 1 hour at room temperature. […]
First, the ratio for each well was determined by:
Each plate included fourteen control wells of DMSO only treatment (minimum inhibition) as well as fourteen control wells for maximum inhibition treated with 3 μM of a reference compound (Background wells). The average of the ratio values for each control type was calculated and used to determine the percent inhibition for each test well in the plate. […] Percent inhibition was determined and IC50 curves were generated using triplicate wells per concentration of compound.

PRMT5/MEP50 = PRMT5/MEP50 (Homo sapiens (Human), UniProt O14744); test: PRMT5 Biochemical Assay (PRMT5/MEP50 enzyme assay on peptide substrate, 3H-SAM Flashplate); details: PRMT5/MEP50 biochemical assay; read-out: Biochemical IC50
Chain of PRMT5/MEP50 (O14744 other isoform, or with tags, fused parts or gaps): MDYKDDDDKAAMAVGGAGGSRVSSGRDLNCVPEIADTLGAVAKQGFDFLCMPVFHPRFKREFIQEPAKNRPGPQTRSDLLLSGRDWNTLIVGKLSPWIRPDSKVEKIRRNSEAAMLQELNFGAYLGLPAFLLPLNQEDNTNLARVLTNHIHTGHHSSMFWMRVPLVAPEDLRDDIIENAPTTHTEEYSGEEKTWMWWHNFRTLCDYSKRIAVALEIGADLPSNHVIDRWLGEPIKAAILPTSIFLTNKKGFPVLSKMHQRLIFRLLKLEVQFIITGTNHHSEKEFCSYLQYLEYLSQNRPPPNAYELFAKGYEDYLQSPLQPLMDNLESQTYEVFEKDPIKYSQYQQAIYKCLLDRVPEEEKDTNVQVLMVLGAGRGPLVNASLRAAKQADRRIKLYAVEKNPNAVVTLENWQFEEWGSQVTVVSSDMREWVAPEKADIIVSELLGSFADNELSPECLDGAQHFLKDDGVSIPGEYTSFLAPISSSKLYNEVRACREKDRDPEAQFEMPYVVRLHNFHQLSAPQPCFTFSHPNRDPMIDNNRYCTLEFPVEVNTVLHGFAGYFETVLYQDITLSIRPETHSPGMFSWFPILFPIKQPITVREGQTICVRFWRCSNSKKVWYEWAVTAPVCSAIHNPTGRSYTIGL
Chain of PRMT5/MEP50 (Q9BQA1 other isoform, or with tags, fused parts or gaps partner): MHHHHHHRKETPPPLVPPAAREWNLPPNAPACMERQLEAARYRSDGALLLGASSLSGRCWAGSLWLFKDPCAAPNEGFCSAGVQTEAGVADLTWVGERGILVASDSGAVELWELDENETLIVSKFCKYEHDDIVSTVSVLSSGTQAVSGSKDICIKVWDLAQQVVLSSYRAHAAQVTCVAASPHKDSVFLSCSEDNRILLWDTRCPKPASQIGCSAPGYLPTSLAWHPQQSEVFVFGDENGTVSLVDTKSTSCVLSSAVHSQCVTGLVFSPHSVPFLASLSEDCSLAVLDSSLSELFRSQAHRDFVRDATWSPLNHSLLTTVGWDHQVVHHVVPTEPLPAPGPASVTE

Z-138 cell line = test: Z-138 Proliferation Assay (Cell Titer Glo, 5 days); type: cell-based; details: Z-138 cells
Excerpt: RPMI/Glutamax medium, penicillin-streptomycin, heat inactivated fetal bovine serum were purchased from Life Technologies, Grand Island, N.Y., USA. V-bottom polypropylene 384-well plates were purchased from Greiner Bio-One, Monroe, N.C., USA. Cell culture 384-well white opaque plates were purchased from Perkin Elmer, Waltham, Mass., USA. Cell-Titer Glo® was purchased from Promega Corporation, Madison, Wis., USA. SpectraMax M5 plate reader was purchased from Molecular Devices LLC, Sunnyvale, Calif., USA.
A compound source plate was prepared by performing triplicate nine-point 3-fold serial dilutions in DMSO, beginning at 10 mM (final top concentration of compound in the assay was 20 μM and the DMSO was 0.2%). A 100 nL aliquot from the compound stock plate was added to its respective well in the cell plate. […] After addition of compounds, assay plates were incubated for 5 days at 37° C., 5% CO2, relative humidity >90%. […] Luminescence was read in the SpectraMax M5 microplate reader. The concentration of compound inhibiting cell viability by 50% was determined using a 4-parametric fit of the normalized dose response curves.

Structure (SMILES)	EC50 [1]	IC50 (PRMT5/MEP50)	EC50 (Z-138 cell line)	EC50 (Z-138 cell line; Homo sapiens, Z-138, 120 h)
CN1CCC(Oc2cccc(C(=O)NCC(O)CN3CCc4ccccc4C3)c2)C1 (stereo not drawn) [Compound 120]	0.101 to 1 µM	< 0.1 µM	1 to 10 µM	
CN1CCC(Oc2cc(C(=O)NC[C@H](O)CN3CCc4ccccc4C3)ncn2)CC1 [Compound 206]	0.101 to 1 µM	< 0.1 µM		1 to 10 µM
